Assay results from publication PMC9466626, “Discovery of new 1H-pyrazolo[3,4-d]pyrimidine derivatives as anticancer agents targeting EGFR^WT and EGFR^T790M” (Journal of Enzyme Inhibition and Medicinal Chemistry, 2022).
Several values for one entry are separate records, joined by “and”; a condition that tells them apart may be missing. Equal entries are not always repeated. Where two headings read alike, the source gives them in different places.

How the values were obtained:
EGFR^WT = molecular target: T1, EGFR^WT (Homo sapiens, UniProt P00533); assay: EGFR^WT kinase inhibitory assay (HTRF); format: biochemical
T1 construct: purchased Sigma
T1 sequence (P00533 25-1210): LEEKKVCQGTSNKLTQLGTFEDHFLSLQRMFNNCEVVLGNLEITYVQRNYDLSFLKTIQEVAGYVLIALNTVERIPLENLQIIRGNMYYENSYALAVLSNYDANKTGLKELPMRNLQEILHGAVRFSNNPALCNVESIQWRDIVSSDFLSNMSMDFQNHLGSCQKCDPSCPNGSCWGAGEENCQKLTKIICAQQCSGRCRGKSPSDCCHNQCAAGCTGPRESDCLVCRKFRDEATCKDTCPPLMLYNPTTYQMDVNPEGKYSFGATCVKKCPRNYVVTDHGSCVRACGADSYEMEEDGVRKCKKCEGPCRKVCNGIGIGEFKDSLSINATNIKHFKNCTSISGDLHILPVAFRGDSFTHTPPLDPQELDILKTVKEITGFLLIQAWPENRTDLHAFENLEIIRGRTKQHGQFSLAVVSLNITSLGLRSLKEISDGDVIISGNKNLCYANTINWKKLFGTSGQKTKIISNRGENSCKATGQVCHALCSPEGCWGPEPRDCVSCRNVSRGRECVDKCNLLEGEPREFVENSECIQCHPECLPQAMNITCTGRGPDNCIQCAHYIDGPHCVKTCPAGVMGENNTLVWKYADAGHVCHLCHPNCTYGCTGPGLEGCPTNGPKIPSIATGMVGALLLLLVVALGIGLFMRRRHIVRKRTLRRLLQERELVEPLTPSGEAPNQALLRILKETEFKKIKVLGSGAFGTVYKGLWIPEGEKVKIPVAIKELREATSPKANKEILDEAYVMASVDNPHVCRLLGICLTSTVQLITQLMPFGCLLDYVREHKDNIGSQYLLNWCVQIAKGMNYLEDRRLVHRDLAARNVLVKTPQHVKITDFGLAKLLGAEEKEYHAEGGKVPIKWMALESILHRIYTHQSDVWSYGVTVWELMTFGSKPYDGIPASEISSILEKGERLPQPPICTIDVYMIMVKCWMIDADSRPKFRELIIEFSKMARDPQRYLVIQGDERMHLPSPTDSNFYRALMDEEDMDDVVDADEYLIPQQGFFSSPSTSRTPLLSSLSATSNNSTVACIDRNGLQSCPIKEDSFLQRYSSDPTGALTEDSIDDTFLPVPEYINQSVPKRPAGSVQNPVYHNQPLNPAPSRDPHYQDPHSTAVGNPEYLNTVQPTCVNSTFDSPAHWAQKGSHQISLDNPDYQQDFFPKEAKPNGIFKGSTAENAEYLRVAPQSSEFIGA
Method: (§1) In vitro EGFR inhibitory activity was assessed using a Homogeneous time-resolved fluorescence (HTRF) assay[56] as described in Supplementary data.
(§2) 4.1.1. EGFRWT and EGFRT790M kinase inhibitory assay […]
(§3) against four cancer cell lines were further examined for their inhibitory activities against both […]
(§4) Homogeneous time resolved fluorescence (HTRF) assay was applied in this test. EGFRWT, EGFRT790M (Sigma). firstly, the EGFRWT and/or EGFRT790M and their substrates were incubated with the tested compounds in enzymatic buffer for 5 min. […]
(§5) the enzymatic reaction. The assay was conducted for 30 min at room temperature. The reaction was stopped by addition of detection reagents which contain EDTA. The detection step continued […]
(§6) experiments were performed for each concentration. […]

BAX/Bcl-2 ratio = BAX/Bcl-2 ratio from qRT-PCR in A549 cells; format: cell-based, human; settings: A549, 48 h, control set to 1
Method: (§7) The effect of compound 12b on the expression of BAX and Bcl‐2 was determined using qRT-PCR as described in Supplementary data[60–62].

BAX = assay: qRT-PCR gene expression of BAX in A549 cells; format: cell-based, human; settings: A549, 48 h, control set to 1
Method: as §7

HCT-116 = assay: In vitro anti-proliferative MTT assay, HCT-116; format: cell-based, human
Method: The cytotoxic activities of the synthesised compounds were assessed against two human cancer cell lines (lung, A549) and (colon HCT-116) using an MTT assay. These two cell lines were selected in this test due to the overexpression of EGFR in human lung and colon cancer cell lines[48]^,[49]. The tested cells were reported to have a high expression level of EGFR.
In vitro cytotoxicity was carried out for the synthesised compounds against A549, HCT-116, and WI-38 cell lines using the MTT assay protocol[52–55] as described in Supplementary data. […]
(§8) 1.1. In vitro antiproliferative activities
The in vitro antiproliferative activities of all the synthesized compounds against two human tumor cell lines namely, (lung, A549) and (colon HCT-116) and one normal cell line (WI-38) were evaluated quantitatively as described in the literature, using MTT assay protocol . two commercially available drugs (erlotinib) were used in this test as positive controls. The anti-proliferative activity was assessed quantitatively as follows.
(§9) Human cancer cell lines were dropped in 96 -well plates at a density of 3-8 × 10^3 cells/well.
(§10) Next, the wells were incubated for 12 h in a 5% CO 2 incubator at 37 °C. Then, for each well, the growth medium was exchanged with 0.1 ml of fresh medium containing graded concentrations of the test compounds to be or equal DMSO and incubated for two days. Then 10 μl MTT solution ([…]) was added to each well, and the cells were incubated for additional 4 h. The crystals of MTT-formazan were dissolved in 100 μl of DMSO; the absorbance of each well was measured at 490 nm using an automatic ELISA reader system (TECAN, CHE). The IC 50 values were calculated using the nonlinear regression fitting models (Graph Pad, Prism Version 5). The data represented the mean of three independent experiments in triplicate and were expressed as means ± SD. The IC50 value was defined as the concentration at which 50% of the cells could survive.
(§11) The results were expressed as growth inhibitory concentration (IC50) values and […]

Bcl-2 = assay: qRT-PCR gene expression of Bcl-2 in A549 cells; format: cell-based, human; settings: A549, 48 h
Method: as §7

EGFR^T790M = molecular target: T2, EGFR^T790M (Homo sapiens, UniProt P00533, T790M); assay: EGFR^T790M kinase inhibitory assay (HTRF); format: biochemical
T2 construct: purchased Sigma
T2 sequence (P00533 25-1210 T790M): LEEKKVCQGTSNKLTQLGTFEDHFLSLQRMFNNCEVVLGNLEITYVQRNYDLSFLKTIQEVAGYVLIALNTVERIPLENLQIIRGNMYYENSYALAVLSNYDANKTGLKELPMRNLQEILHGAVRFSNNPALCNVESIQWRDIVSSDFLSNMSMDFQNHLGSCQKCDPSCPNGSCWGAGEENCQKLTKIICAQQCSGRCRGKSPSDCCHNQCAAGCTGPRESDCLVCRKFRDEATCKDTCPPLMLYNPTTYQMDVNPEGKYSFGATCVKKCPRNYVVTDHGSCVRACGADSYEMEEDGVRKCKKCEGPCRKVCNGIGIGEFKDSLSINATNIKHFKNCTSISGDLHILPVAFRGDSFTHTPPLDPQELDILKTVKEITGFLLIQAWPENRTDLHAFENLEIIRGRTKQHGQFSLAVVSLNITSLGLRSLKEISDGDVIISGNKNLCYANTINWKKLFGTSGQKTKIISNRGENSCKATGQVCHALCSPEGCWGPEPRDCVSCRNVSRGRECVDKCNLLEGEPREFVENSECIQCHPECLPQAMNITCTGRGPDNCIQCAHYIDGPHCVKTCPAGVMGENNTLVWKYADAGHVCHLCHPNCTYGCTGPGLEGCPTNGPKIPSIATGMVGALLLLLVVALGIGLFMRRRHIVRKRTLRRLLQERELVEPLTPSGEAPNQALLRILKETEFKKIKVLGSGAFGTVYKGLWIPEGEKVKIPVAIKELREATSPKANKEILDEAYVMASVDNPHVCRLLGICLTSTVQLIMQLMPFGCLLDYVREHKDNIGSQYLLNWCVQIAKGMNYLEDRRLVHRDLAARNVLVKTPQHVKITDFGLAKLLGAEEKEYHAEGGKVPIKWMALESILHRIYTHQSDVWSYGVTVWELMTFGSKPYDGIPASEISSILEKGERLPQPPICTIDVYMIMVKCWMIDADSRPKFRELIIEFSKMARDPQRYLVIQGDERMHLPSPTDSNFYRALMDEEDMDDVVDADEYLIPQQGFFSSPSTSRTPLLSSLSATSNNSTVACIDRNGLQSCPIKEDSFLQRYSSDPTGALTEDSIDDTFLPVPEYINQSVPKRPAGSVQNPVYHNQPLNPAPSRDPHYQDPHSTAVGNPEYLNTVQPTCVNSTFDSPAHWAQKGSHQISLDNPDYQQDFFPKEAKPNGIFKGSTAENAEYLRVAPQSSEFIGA
Method: as §1, §2, §3, §4, §5, §6

WI-38 = assay: In vitro cytotoxicity against normal cells (MTT), WI-38
Method: Next, the wells were incubated for 12 h in a 5% CO 2 incubator at 37 °C. Then, for each well, the growth medium was exchanged with 0.1 ml of fresh medium containing graded concentrations of the test compounds to be or equal DMSO and incubated for two days. Then 10 μl MTT solution (5 μg/ml) was added to each well, and the cells were incubated for additional 4 h. The crystals of MTT-formazan were dissolved in 100 μl of DMSO; the absorbance of each well was measured at 490 nm using an automatic ELISA reader system (TECAN, CHE). The IC 50 values were calculated using the nonlinear regression fitting models (Graph Pad, Prism Version 5). The data represented the mean of three independent experiments in triplicate and were expressed as means ± SD.

A549 cells = assay: Annexin V-FITC apoptosis assay; format: cell-based, human
Method: The effect of compound 12b on cell apoptosis was investigated as described in Supplementary data[59]. […]
4.1.3. Annexin V-FITC apoptosis assay.
To detect the apoptosis induced by compound 12b, a549 cells were seeded and incubated overnight and then treated with compound 12b at concentrations of 8.21 µM µM for 48 h. DMSO was chosen as the negative control. After that, the cells were collected and washed with PBS two successive times. The cells were exposed to centrifugation. Apoptosis detection kit (BD Biosciences, San Jose, CA) was used in this test. According to the manufacturer's protocol the cells were stained by Annexin V-FITC and propidium iodide (PI) in the binding buffer for 20min at room temperature in the dark. Using a flow cytometer, Annexin V-FITC and PI binding were analyzed. flowjo software was used to analyze the frequencies in all quadrants.

A549 = assay: In vitro anti-proliferative MTT assay, A549; format: cell-based, human; settings: for IC50: Homo sapiens, A549
Method: These two cell lines were selected in this test due to the overexpression of EGFR in human lung and colon cancer cell lines[48]^,[49]. The tested cells were reported to have a high expression level of EGFR. […]
as §8
The in vitro antiproliferative activities of all the synthesized compounds against two human […]
evaluated quantitatively as described in the literature, using MTT assay protocol . two […]
proliferative activity was assessed quantitatively as follows.
as §9
as §10, with “IC50 value was defined as the concentration at which 50% of the cells could survive.” left out
as §11

[1] = supplement graph, axis Log (nM)
[2] = A549, 48 h, mean ± SEM, listed as 12 b

CC(=NNc1nc(Nc2ccccc2)nc2c1cnn2-c1ccccc1)c1ccc(Cl)cc1 [Compound 12b, 4–(2-(1–(4-Chlorophenyl)ethylidene)hydrazinyl)-N,1-diphenyl-1H-pyrazolo[3,4-d]pyrimidin-6-amine]
IC50 (EGFR^WT; HTRF, mean of three experiments, read-out: EGFR^WT IC50): 16 nM | HillSlope (best-fit value), EGFR inhibition (EGFR^WT; supplement graph): -0.3524 | LogIC50 (best-fit value), EGFR inhibition (EGFR^WT; [1]): 1.193 | IC50 (EGFR^WT; supplement graph, axis Log (nM), read-out: IC50 (best-fit value of graph), EGFR inhibition): 15.6 nM | Gene expression (Fold Change) BAX/Bcl-2 ratio (BAX/Bcl-2 ratio): 8.8 Fold Change and 8.80 ± 1.41 Fold Change | Gene expression (Fold Change) BAX (BAX): 3.3 Fold Change and 3.33 ± 0.37 Fold Change | IC50 (HCT-116; Homo sapiens, HCT-116, MTT, mean of three experiments, read-out: In vitro cytotoxicity IC50, HCT-116): 19600 nM | HillSlope (best-fit value), HCT-116 (HCT-116; supplement IC50 graph): -0.3805 | LogIC50 (best-fit value), HCT-116 (HCT-116; supplement IC50 graph): 1.291 | Gene expression (Fold Change) Bcl-2 (Bcl-2; control set to 1): 0.40 ± 0.08 Fold Change | fold decrease in Bcl-2 gene expression (Bcl-2; vs untreated): 2.5 fold | fold more potent than erlotinib against EGFR^T790M (EGFR^T790M): 2.4 fold | IC50 (EGFR^T790M; HTRF, mean of three experiments, read-out: EGFR^T790M IC50): 236 nM | HillSlope (best-fit value), EGFRT790M inhibition (EGFR^T790M; supplement graph): -0.3418 | LogIC50 (best-fit value), EGFRT790M inhibition (EGFR^T790M; [1]): 2.372 | IC50 (EGFR^T790M; supplement graph, axis Log (nM), read-out: IC50 (best-fit value of graph), EGFRT790M inhibition): 235 nM | Selectivity index (SI) A549 (WI-38; cytotoxicity against WI-38 / cytotoxicity against A549): 4.77 | Selectivity index (SI) HCT-116 (WI-38; cytotoxicity against WI-38 / cytotoxicity against HCT-116): 2.00 | HillSlope (best-fit value), WI-38 (WI-38; supplement graph): -0.4504 | LogIC50 (best-fit value), WI-38 (WI-38; supplement graph): 1.593 | Apoptosis Early (Right Bottom) (A549 cells; A549, 48 h, mean ± SEM): 67.69% | Apoptosis Late (Right Top) (A549 cells; A549, 48 h, mean ± SEM): 0.64% | Necrosis (Left Top) (A549 cells; A549, 48 h, mean ± SEM): 0.10 ± 0.02% | Viable (Left Bottom) (A549 cells; A549, 48 h, mean ± SEM): 31.57 ± 4.64% | Apoptosis Early (Right Bottom) (A549 cells; [2]): 67.69 ± 4.86 % | Apoptosis Late (Right Top) (A549 cells; [2]): 0.64 ± 0.30% | fold decrease in the ratio of viable cells (A549 cells; vs untreated A549, 48 h): 3 fold | fold increase in the early apoptosis ratio (A549 cells; vs untreated A549, 48 h): 11 fold | fold increase in the late apoptosis ratio (A549 cells; vs untreated A549, 48 h): 1.5 fold | IC50 (A549; MTT, mean of three experiments, read-out: In vitro cytotoxicity IC50, A549): 8210 nM | IC50 (A549; supplement IC50 graph, unit inferred, read-out: IC50 (best-fit value of graph), A549): 8220 nM | HillSlope (best-fit value), A549 (A549; supplement IC50 graph): -0.3430 | LogIC50 (best-fit value), A549 (A549; supplement IC50 graph): 0.9146
